Results: PubChem BioAssay (NCI)
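Dose response: 5 concentrations. Exposure: 48 h. Format: 96-well plates. Endpoint: linear interpolation; highest concentration if not reached. Abbreviation: GI50, concentration required for 50% inhibition of growth. TGI is the concentration that stops growth completely.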

Legend:
Assay in all cases: inhibition of tumour cell growth, NCI panel, 48 h
[1] = system: SN12C renal
[2] = system: SK-MEL-2 melanoma
[3] = system: SNB-19 CNS
[4] = system: HOP-62 NSCLC
[5] = system: HOP-92 NSCLC
[6] = system: SK-MEL-28 melanoma
[7] = system: HCT-15 colon
[8] = system: ACHN renal
[9] = system: TK-10 renal
[10] = system: PC-3 prostate

Row | SMILES | GI50 [1] | TGI [1] | GI50 [2] | TGI [2] | GI50 [3] | TGI [3] | GI50 [4] | TGI [4] | GI50 [5] | TGI [5] | GI50 [6] | TGI [6] | GI50 [7] | TGI [7] | GI50 [8] | TGI [8] | GI50 [9] | TGI [9] | GI50 [10] | TGI [10]
1 | Cc1cc(I)cc(CN(C)CCCN2CCC(C)CC2)c1O | 24 µM | 93.4 µM | 17.4 µM | 33.9 µM | 16.4 µM | 34 µM | 14.1 µM | 27.2 µM | 6.62 µM | 21.5 µM | 12.1 µM | 24.5 µM | 12.1 µM | 26.7 µM | 16.3 µM | 30.7 µM | 14.7 µM | 29.2 µM | 14.1 µM | 29.7 µM
2 | Nc1ccc(C#Cc2ccccc2C#CCCCCO)cc1 | 6.26 µM | 20 µM | 18.8 µM | 37.1 µM | 17.5 µM | 31.3 µM | 15.2 µM | 28.7 µM | 15.5 µM | 32.1 µM | 9.31 µM | 21.9 µM | 15.3 µM | 28.7 µM | 14.5 µM | 27.5 µM | 21.6 µM | 46.5 µM | 15.6 µM | 28.9 µM
3 | Cc1ccc(NC(=O)COc2ccc(Cl)cc2)cc1Cl |  | > 100 µM |  | > 100 µM |  | > 100 µM |  | > 100 µM |  | > 100 µM |  | > 100 µM |  | > 100 µM |  | > 100 µM |  | > 100 µM |  | > 100 µM
4 | C[C@]12CCC(=O)C=C1C[C@@H](O)[C@@H]1[C@@H]2CC[C@@]2(C)[C@H]1CC[C@]2(C)O |  | > 100 µM |  | > 100 µM |  | > 100 µM |  | > 100 µM |  | > 100 µM |  | > 100 µM |  | > 100 µM |  | > 100 µM |  | > 100 µM |  | > 100 µM
5 | Oc1c(C(c2ccc(F)cc2)N2CCCCC2)ccc2cncnc12 (stereo not given) | 0.396 µM | > 100 µM | 0.527 µM | 5.86 µM | 0.396 µM | > 100 µM | 0.513 µM | > 100 µM | 0.313 µM | 2.96 µM | 0.71 µM | > 100 µM | 2.11 µM | > 100 µM | 1.24 µM | > 100 µM | 1.35 µM | > 100 µM | 0.426 µM | > 100 µM
6 | Cc1cc(N(CCC#N)S(=O)(=O)c2ccccc2)ccc1C=Nc1ccc(C(=O)O)cc1 |  | 16.8 µM |  | 22.3 µM |  | 44.8 µM |  | 46 µM |  | > 100 µM |  | 28.3 µM |  | 13.7 µM |  | > 33.2 µM |  | 17.9 µM |  | > 100 µM
7 | N#C/C(=C\c1ccc[nH]1)c1cc(-c2ccc(Cl)cc2)nn1-c1ccccc1 | 5.87 µM | > 48 µM | 8.65 µM | 34.6 µM | 9.35 µM | > 56.9 µM | 7.63 µM | 24.2 µM | 2.54 µM | 10.2 µM | 4.57 µM | 17.5 µM | 5.37 µM | 25.1 µM | 5.55 µM | 47.5 µM | 3.12 µM | 21.1 µM | 3.12 µM | 23.1 µM
8 | COc1ccc(C(=O)/C=C/c2ccc(OCc3cccc(C(F)(F)F)c3)c(OC)c2)cc1OC | 74.4 µM | > 1000 µM | 187 µM | > 1000 µM | 78.9 µM | > 1000 µM | 51.5 µM | > 1000 µM | 142 µM | > 1000 µM | 262 µM | > 1000 µM | 42 µM | > 1000 µM | 52.8 µM | > 1000 µM | 397 µM | > 1000 µM | 61.4 µM | > 1000 µM
9 | C=C1C(=O)O[C@@H]2/C=C(/C)[C@@H](OC(C)=O)C[C@@H](O)/C(C)=C\[C@@H](OC(=O)[C@]3(C)O[C@@H]3C)[C@@H]12 |  | 24.7 µM |  | 33.9 µM |  | > 100 µM |  | > 100 µM |  | 26.7 µM |  | 23.2 µM |  | 34.1 µM |  | 26.8 µM |  | 29.5 µM |  | 32.3 µM
10 | NS(=O)(=O)c1ccc(-n2nc3c(c2-c2cccs2)Cc2ccccc2-3)cc1 | 12.2 µM | 25 µM | 27.6 µM | 69.6 µM | 18.1 µM | 44.8 µM | 16.5 µM | 32.2 µM | 5.56 µM | 22.7 µM | 25.8 µM | 58.4 µM | 12 µM | 27.8 µM | 11.7 µM | 24.7 µM | 12.2 µM | 38.7 µM | 6.76 µM | 20.6 µM
11 | COC(=O)C1=C(C)NC(=S)NC1c1ccc(N(CCCl)CCCl)cc1Cl (stereo not given) |  | > 100 µM |  | > 85.9 µM |  | > 100 µM |  | > 100 µM |  | > 100 µM |  | > 100 µM |  | > 66.5 µM |  | > 75.9 µM |  | 98.6 µM |  | > 82.8 µM
12 | OC(c1cc(C(F)(F)F)nc2c(Cl)cc(Cl)cc12)C1CCCCN1 (stereo not given) |  | > 39.6 µM |  | > 43.8 µM |  | > 52.3 µM |  | 18.5 µM |  | 21.9 µM |  | 29.5 µM |  | 27.4 µM |  | > 43.7 µM |  | > 32.8 µM |  | > 43.1 µM
13 | CC(C)(C)NCC(O)c1ccccc1Cl (stereo not given) | > 100 µM | > 100 µM | > 100 µM | > 100 µM | > 100 µM | > 100 µM | > 100 µM | > 100 µM | > 100 µM | > 100 µM | > 100 µM | > 100 µM | > 100 µM | > 100 µM | > 100 µM | > 100 µM | > 100 µM | > 100 µM | > 100 µM | > 100 µM
14 | CCCCCCCCN(CCCCCCCC)CC(O)c1cc(-c2ccccc2)nc2ccc(OC)cc12 (stereo not given) | 29.7 µM | > 100 µM | 50.3 µM | > 100 µM | 54.7 µM | > 100 µM | 30.4 µM | > 100 µM | 57.5 µM | > 100 µM | 62.3 µM | > 100 µM | 23.2 µM | > 100 µM | > 100 µM | > 100 µM | > 100 µM | > 100 µM | 47.7 µM | > 100 µM
15 | CC1(C)OCC2OC(n3cnc4c(N)nc(Cl)nc43)C(OS(C)(=O)=O)C2O1 (stereo not given) |  | > 100 µM |  | > 100 µM |  | > 100 µM |  | > 100 µM |  | > 100 µM |  | > 100 µM |  | > 100 µM |  | > 100 µM |  | > 100 µM |  | > 100 µM
16 | COc1nn(C)cc1Nc1nccc(-c2c[nH]c3c(NC(=O)[C@@H](C)N4CCN(C)CC4)cccc23)n1 | 38.3 µM | > 100 µM | 25 µM | 74.5 µM | 75.6 µM | > 100 µM | 23.1 µM | > 100 µM | 41.7 µM | > 100 µM | 53.9 µM | > 100 µM | 37.6 µM | > 100 µM | 37.6 µM | > 100 µM | 44.1 µM | > 100 µM | 51.2 µM | > 100 µM
17 | Clc1cnc(Nc2ccc(OCCN3CCCC3)cc2)nc1NCc1ccco1 | 2.42 µM | 10.6 µM | 1.8 µM | 3.48 µM | 3.51 µM | 13.5 µM | 2.24 µM | 6.58 µM | 1.14 µM | 6.6 µM | 3.29 µM | 10.7 µM | 2.72 µM | 11.8 µM | 2.37 µM | 26.4 µM | 2.28 µM | 11.8 µM | 2.66 µM | 8.53 µM
18 | Cn1nc(C(F)(F)F)cc1-c1cc(Cl)c(OCc2ccc(Cl)cc2)c(-c2ccc(Cl)c(C(F)(F)F)c2)c1O | 0.785 µM | 4.58 µM | 0.919 µM | 2.34 µM | 1.16 µM | 6.72 µM | 1.26 µM | 3.3 µM | 0.554 µM | 2.1 µM | 1.14 µM | 3.53 µM | 0.764 µM | 4.4 µM | 1.39 µM | 4.6 µM | 1.66 µM | 5.56 µM | 0.709 µM | 5.09 µM
